pEC50: −log10 of the molar value.
Target: T1, human F508del CFTR (Homo sapiens, UniProt P13569, DEL508-508)
T1 construct: expressed in transfected cells; host or cells: Fisher Rat Thyroid (FRT) cells
Assay: CFTR-YFP High Throughput Assay
Assay type: cell-based
Conditions: FRT cells expressing human F508del CFTR and YFP; for Emax: EMax normalized to the positive control, read-out: % Efficacy
In short: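 Corrector mode: 24-26 h compound exposure (2 nM-40 μM, 37° C) of FRT cells carrying human F508del CFTR and YFP-H148Q/I152L, followed by washing and 60-120 min RT stimulation with 20 μM forskolin and 30 μM P3. CFTR activity is the least-squares-fitted rate of YFP quenching (Ex 500/Em 540 nm) after iodide addition.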

T1 sequence (P13569 with tags, fused parts or gaps DEL508-508): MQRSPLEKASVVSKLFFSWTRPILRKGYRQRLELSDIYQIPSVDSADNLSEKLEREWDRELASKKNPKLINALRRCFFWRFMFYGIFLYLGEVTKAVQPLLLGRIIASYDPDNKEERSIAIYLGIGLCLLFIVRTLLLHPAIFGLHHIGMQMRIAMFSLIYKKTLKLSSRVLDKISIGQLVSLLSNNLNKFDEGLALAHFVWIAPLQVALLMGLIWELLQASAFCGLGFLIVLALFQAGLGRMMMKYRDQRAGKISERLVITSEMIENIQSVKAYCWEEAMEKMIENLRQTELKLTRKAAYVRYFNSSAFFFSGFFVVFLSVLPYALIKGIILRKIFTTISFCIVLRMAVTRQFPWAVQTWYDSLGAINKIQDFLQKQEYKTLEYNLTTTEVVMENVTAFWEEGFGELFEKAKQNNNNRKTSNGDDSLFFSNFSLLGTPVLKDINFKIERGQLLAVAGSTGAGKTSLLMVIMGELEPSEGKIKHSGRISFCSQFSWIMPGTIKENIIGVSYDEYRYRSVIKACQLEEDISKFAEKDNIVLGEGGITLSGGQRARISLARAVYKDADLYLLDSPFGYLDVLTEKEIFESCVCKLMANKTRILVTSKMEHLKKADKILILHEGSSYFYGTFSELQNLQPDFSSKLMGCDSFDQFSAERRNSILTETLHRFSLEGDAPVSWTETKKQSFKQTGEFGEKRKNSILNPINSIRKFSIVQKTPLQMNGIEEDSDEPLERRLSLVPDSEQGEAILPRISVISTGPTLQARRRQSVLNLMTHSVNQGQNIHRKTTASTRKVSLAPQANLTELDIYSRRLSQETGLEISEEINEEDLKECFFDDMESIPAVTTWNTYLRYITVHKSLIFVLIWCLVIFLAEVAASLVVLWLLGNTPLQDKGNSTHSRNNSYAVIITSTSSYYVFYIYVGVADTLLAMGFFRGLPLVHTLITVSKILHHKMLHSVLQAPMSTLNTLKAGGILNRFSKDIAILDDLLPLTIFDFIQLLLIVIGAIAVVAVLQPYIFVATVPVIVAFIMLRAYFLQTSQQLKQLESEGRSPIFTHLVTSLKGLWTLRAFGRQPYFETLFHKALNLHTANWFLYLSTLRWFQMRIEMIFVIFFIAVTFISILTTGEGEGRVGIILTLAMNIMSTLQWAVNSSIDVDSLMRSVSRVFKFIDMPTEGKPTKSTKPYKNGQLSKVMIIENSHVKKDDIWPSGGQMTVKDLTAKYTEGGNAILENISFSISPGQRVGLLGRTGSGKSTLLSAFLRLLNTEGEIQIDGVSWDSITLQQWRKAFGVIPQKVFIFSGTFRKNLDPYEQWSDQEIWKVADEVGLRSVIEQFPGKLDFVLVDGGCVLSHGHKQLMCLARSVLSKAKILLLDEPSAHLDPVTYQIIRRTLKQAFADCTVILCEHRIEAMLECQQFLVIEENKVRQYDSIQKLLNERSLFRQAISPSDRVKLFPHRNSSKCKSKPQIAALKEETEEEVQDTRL

| SMILES | Emax [%] | pEC50 |
| --- | --- | --- |
| CCOc1cc2c(=O)n(CC(=O)N(C)c3ccc4c(c3)OC(F)(F)O4)nc(-c3cccc(C#N)c3)c2cc1Cl [Example 122, 2-(6-chloro-4-(3-cyanophenyl)-7-ethoxy-1-oxophthalazin-2(1H)-yl)-N-(2,2-difluorobenzo[d][1,3]dioxol-5-yl)-N-methylacetamide] | > 80 | > 5.00 |
| CCN(C(=O)c1nn(C2CCOCC2)c(=O)c2c1c1ccccc1n2C)c1ccccc1 [Example 185, N-ethyl-5-methyl-4-oxo-N-phenyl-3-(tetrahydro-2H-pyran-4-yl)-4,5-dihydro-3H-pyridazino[4,5-b]indole-1-carboxamide] | 30 to 80 | > 5.00 |
| Cc1ccc(-n2nc(-c3ccccc3)c3c4ccccc4n(C)c3c2=O)cc1 [Example 236, 5-methyl-1-phenyl-3-(p-tolyl)-3H-pyridazino[4,5-b]indol-4(5H)-one] | 10 to 30 | < 4.70 |
| CCN(C(=O)c1nn(-c2ccc(C)cc2)c(=O)c2c1c1ccccc1n2C)c1ccccn1 [Example 156, N-ethyl-5-methyl-4-oxo-N-(pyridin-2-yl)-3-(p-tolyl)-4,5-dihydro-3H-pyridazino[4,5-b]indole-1-carboxamide] | 30 to 80 |  |
| CCN(C(=O)c1nn(-c2ccc(C)cc2)c(=O)c2c1c1ccccc1n2C)c1ccc2c(c1)OC(F)(F)O2 [Example 182, N-(2,2-difluorobenzo[d][1, 3]dioxol-5-yl)-N-ethyl-5-methyl-4-oxo-3-(p-tolyl)-4,5-dihydro-3H-pyridazino[4,5-b]indole-1-carboxamide] | 30 to 80 |  |
| CCN(C(=O)Cn1nc(Cc2cccnc2)c2cccc(OCCOC)c2c1=O)c1ccc2c(c1)OC(F)(F)O2 [Example 61, N-(2,2-difluorobenzo[d][1,3]dioxol-5-yl)-N-ethyl-2-(8-(2-methoxyethoxy)-1-oxo-4-(pyridin-3-ylmethyl)phthalazin-2(1H)-yl)acetamide] | 30 to 80 |  |
| CCN(C(=O)c1nn(C2CCCCC2)c(=O)c2c1c1ccccc1n2C)c1cccc(Cl)c1 [Example 204, N-(3-chlorophenyl)-3-cyclohexyl-N-ethyl-5-methyl-4-oxo-4,5-dihydro-3H-pyridazino[4,5-b]indole-1-carboxamide] | 30 to 80 |  |
| [2H]C([2H])([2H])N(C(=O)Cn1nc(-c2cccc(C#N)c2)c2ccc(OC)cc2c1=O)c1ccc2nc(C)oc2c1 [Example 86, 2-(4-(3-cyanophenyl)-7-methoxy-1-oxophthalazin-2(1H)-yl)-N-(methyl-d3)-N-(2-methylbenzo[d]oxazol-6-yl)acetamide] | > 80 | > 5.00 |
| CCN(C(=O)Cn1nc(Cc2cccnc2)c2ccc(Cl)cc2c1=O)c1ccc2c(c1)OC(F)(F)O2 [Example 54, 2-(7-chloro-1-oxo-4-(pyridin-3-ylmethyl)phthalazin-2(1H)-yl)-N-(2,2-difluorobenzo[d][1,3]dioxol-5-yl)-N-ethylacetamide] | 30 to 80 |  |
| CC(C)N(C(=O)c1nn(-c2cnc3ccccc3c2)c(=O)c2c1c1ccccc1n2C)c1ccccc1 [Example 191, N-isopropyl-5-methyl-4-oxo-N-phenyl-3-(quinolin-3-yl)-4,5-dihydro-3H-pyridazino[4,5-b]indole-1-carboxamide] | 30 to 80 | < 4.70 |
| CCN(C(=O)c1nn(-c2cnc3ccccc3c2)c(=O)c2c1c1ccccc1n2C)c1ccccc1 [Example 177, N-ethyl-5-methyl-4-oxo-N-phenyl-3-(quinolin-3-yl)-4,5-dihydro-3H-pyridazino[4,5-b]indole-1-carboxamide] | 30 to 80 |  |
| CCN(C(=O)Cn1nc(Cc2cccnc2)c2ccc(OC)cc2c1=O)c1ccc2c(c1)OC(F)(F)O2 [Example 52, N-(2,2-difluorobenzo[d][1,3]dioxol-5-yl)-N-ethyl-2-(7-methoxy-1-oxo-4-(pyridin-3-ylmethyl)phthalazin-2(1H)-yl)acetamide] | 30 to 80 |  |
| CCN(C(=O)c1nn(-c2ccc(OC)c(Cl)c2)c(=O)c2c1c1ccccc1n2C)c1ccccn1 [Example 192, 3-(3-chloro-4-methoxyphenyl)-N-ethyl-5-methyl-4-oxo-N-(pyridin-2-yl)-4,5-dihydro-3H-pyridazino[4,5-b]indole-1-carboxamide] | 30 to 80 | > 5.00 |

More lines, now with the values ahead:

| Emax [%] | pEC50 | SMILES |
| --- | --- | --- |
| 30 to 80 |  | CCc1ccc(N(CC)C(=O)Cn2nc(-c3cccc4ncccc34)c3ccccc3c2=O)cc1 [Example 5, N-ethyl-N-(4-ethylphenyl)-2-(1-oxo-4-(quinolin-5-yl)phthalazin-2(1H)-yl)acetamide] |
| 30 to 80 |  | CCN(C(=O)Cn1nc(Cc2cccnc2)c2cccc(C)c2c1=O)c1ccc2c(c1)OC(F)(F)O2 [Example 47, N-(2,2-difluorobenzo[d][1,3]dioxol-5-yl)-N-ethyl-2-(8-methyl-1-oxo-4-(pyridin-3-ylmethyl)phthalazin-2(1H)-yl)acetamide] |
| 30 to 80 |  | CCN(C(=O)Cn1nc(C(=O)Nc2cc(Cl)ccc2C(=O)O)c2ccccc2c1=O)c1ccc2c(c1)OC(F)(F)O2 [Example 125] |
| 30 to 80 | 4.70 to 5.00 | CCc1ccc(N(CC)C(=O)Cn2nc(-c3cccc(C(N)=O)c3)c3ccccc3c2=O)cc1 [Example 11, 3-(3-(2-(ethyl(4-ethylphenyl)amino)-2-oxoethyl)-4-oxo-3,4-dihydrophthalazin-1-yl)benzamide] |
| 10 to 30 | > 5.00 | CCc1ccc(N(CC)C(=O)Cn2nc(-c3cccc(O)c3)c3ccccc3c2=O)cc1 [Example 9, N-ethyl-N-(4-ethylphenyl)-2-(4-(3-hydroxyphenyl)-1-oxophthalazin-2(1H)-yl)acetamide] |
| 10 to 30 |  | CCN(C(=O)c1nn(-c2ccc(C)cc2)c(=O)c2c1c1ccccc1n2C1CCC1)c1ccccc1 [Example 219, 5-cyclobutyl-N-ethyl-4-oxo-N-phenyl-3-p-tolyl-4,5-dihydro-3H-pyridazino[4,5-b]indole-1-carboxamide] |
| 30 to 80 |  | CCc1ccc(N(CC)C(=O)Cn2nc(Cc3cccnc3)c3ccc(C(C)(C)C)cc3c2=O)cc1 [Example 33, 2-(7-(tert-butyl)-1-oxo-4-(pyridin-3-ylmethyl)phthalazin-2(1H)-yl)-N-ethyl-N-(4-ethylphenyl)acetamide] |
| 30 to 80 | > 5.00 | CCN(C(=O)Cn1nc(Cc2cccnc2)c2c3ccccc3n(C)c2c1=O)c1ccc2c(c1)OC(F)(F)O2 [Example 238, N-(2,2-difluorobenzo[d][1, 3]dioxol-5-yl)-N-ethyl-2-(5-methyl-4-oxo-1-(pyridin-3-ylmethyl)-4,5-dihydro-3H-pyridazino[4,5-b]indol-3-yl)acetamide] |
| 30 to 80 | > 5.00 | CCN(C(=O)c1nn(CCOC)c(=O)c2c1c1ccccc1n2C)c1ccccc1 [Example 227, N-ethyl-3-(2-methoxyethyl)-5-methyl-4-oxo-N-phenyl-4,5-dihydro-3H-pyridazino[4,5-b]indole-1-carboxamide] |
| 30 to 80 |  | CCN(C(=O)c1nn(-c2ccccc2)c(=O)c2c1c1ccccc1n2C)c1cccc(Cl)c1 [Example 181, N-(3-chlorophenyl)-N-ethyl-5-methyl-4-oxo-3-phenyl-4,5-dihydro-3H-pyridazino[4,5-b]indole-1-carboxamide] |
| > 80 | > 5.00 | Cc1nc2ccc(N(C)C(=O)Cn3nc(-c4cccc(Cl)c4)c4ccc(OCc5ccccc5)cc4c3=O)cc2o1 [Example 116, 2-(7-(benzyloxy)-4-(3-chlorophenyl)-1-oxophthalazin-2(1H)-yl)-N-methyl-N-(2-methylbenzo[d]oxazol-6-yl)acetamide] |
| 30 to 80 |  | COc1ccc2c(-c3ccc(C(N)=O)cc3)nn(CC(=O)N(C)c3ccc4c(c3)OC(F)(F)O4)c(=O)c2c1 [Example 83, 4-(3-(2-((2,2-difluorobenzo[d][1, 3]dioxol-5-yl)(methyl)amino)-2-oxoethyl)-6-methoxy-4-oxo-3,4-dihydrophthalazin-1-yl)benzamide] |
| > 80 | > 5.00 | COc1ccc2c(-c3cccc(C#N)c3)nn(CC(=O)N(C)c3ccc4nc(C)oc4c3)c(=O)c2c1 [Example 87, 2-(4-(3-cyanophenyl)-7-methoxy-1-oxophthalazin-2(1H)-yl)-N-methyl-N-(2-methylbenzo[d]oxazol-6-yl)acetamide] |
| > 80 | 4.70 to 5.00 | CCN(C(=O)Cn1nc(-c2ccc(C(N)=O)cc2)c2ccccc2c1=O)c1ccc2c(c1)OC(F)(F)O2 [Example 19, 4-(3-(2-((2,2-difluorobenzo[d][1,3]dioxol-5-yl)(ethyl)amino)-2-oxoethyl)-4-oxo-3,4-dihydrophthalazin-1-yl)benzamide] |
| 30 to 80 | < 4.70 | CCN(C(=O)c1nn(-c2ccc(C)cc2)c(=O)c2c1c1cccc(OC)c1n2C)c1ccccc1 [Example 189, N-ethyl-6-methoxy-5-methyl-4-oxo-N-phenyl-3-(p-tolyl)-4,5-dihydro-3H-pyridazino[4,5-b]indole-1-carboxamide] |
| 30 to 80 |  | CCN(C(=O)c1nn(-c2ccccc2)c(=O)c2c1c1ccccc1n2C)c1ccncc1 [Example 158, N-ethyl-5-methyl-4-oxo-3-phenyl-N-(pyridin-4-yl)-4,5-dihydro-3H-pyridazino[4,5-b]indole-1-carboxamide] |
| > 80 | 4.70 to 5.00 | CCN(C(=O)Cn1ncc2c(c1=O)c1ccccc1n2Cc1ccc(C#N)cc1)c1ccc2c(c1)OC(F)(F)O2 [Example 144, 2-(5-(4-cyanobenzyl)-1-oxo-1H-pyridazino[4,5-b]indol-2(5H)-yl)-N-(2-2-difluorobenzo[d][1,3]dioxol-5-yl)-N-ethylacetamide] |
| 30 to 80 | < 4.70 | CCN(C(=O)c1nn(-c2ccc(C(F)(F)F)cc2)c(=O)c2c1c1ccccc1n2C)c1ccccc1 [Example 194, N-ethyl-5-methyl-4-oxo-N-phenyl-3-(4-(trifluoromethyl)phenyl)-4,5-dihydro-3H-pyridazino[4,5-b]indole-1-carboxamide] |

Reference: patent US10370366B2 (Flatley Discovery Lab, LLC, priority 2013, dated 2019)
